In PubChem BioAssay AID1259407 (Chemical Carcinogenesis Research Information System (CCRIS), 2018):
The source made the active and inactive calls. The rule behind the calls is not given here.

Tested on: CCRIS mutagenicity, Ames/micronucleus/aberration tests
Test: CCRIS mutagenicity studies
[1] = Test System: AMES SALMONELLA TYPHIMURIUM, Strain/Indicator: TA100, Metabolic Activation: NONE, Method: PREINCUBATION
[2] = Test System: AMES SALMONELLA TYPHIMURIUM, Strain/Indicator: TA1537, Metabolic Activation: NONE, Method: PREINCUBATION

Measured: mutagenic call

CCCC(C)(COC(N)=O)COC(=O)NC(C)C (configuration not stated)
inactive: Test System: AMES SALMONELLA TYPHIMURIUM, Strain/Indicator: TA98, Metabolic Activation: HAMSTER, LIVER, S-9, AROCLOR 1254 (10%), Method: PREINCUBATION inactive; negative | Test System: AMES SALMONELLA TYPHIMURIUM, Strain/Indicator: TA98, Metabolic Activation: NONE, Method: PREINCUBATION inactive; negative | Test System: AMES SALMONELLA TYPHIMURIUM, Strain/Indicator: TA98, Metabolic Activation: RAT, LIVER, S-9, AROCLOR 1254 (10%), Method: PREINCUBATION inactive; negative | Test System: AMES SALMONELLA TYPHIMURIUM, Strain/Indicator: TA100, Metabolic Activation: HAMSTER, LIVER, S-9, AROCLOR 1254 (10%), Method: PREINCUBATION inactive; negative | [1] inactive; negative | Test System: AMES SALMONELLA TYPHIMURIUM, Strain/Indicator: TA100, Metabolic Activation: RAT, LIVER, S-9, AROCLOR 1254 (10%), Method: PREINCUBATION inactive; negative | Test System: AMES SALMONELLA TYPHIMURIUM, Strain/Indicator: TA1535, Metabolic Activation: HAMSTER, LIVER, S-9, AROCLOR 1254 (10%), Method: PREINCUBATION inactive; negative | Test System: AMES SALMONELLA TYPHIMURIUM, Strain/Indicator: TA1535, Metabolic Activation: NONE, Method: PREINCUBATION inactive; negative | Test System: AMES SALMONELLA TYPHIMURIUM, Strain/Indicator: TA1535, Metabolic Activation: RAT, LIVER, S-9, AROCLOR 1254 (10%), Method: PREINCUBATION inactive; negative | Test System: AMES SALMONELLA TYPHIMURIUM, Strain/Indicator: TA1537, Metabolic Activation: HAMSTER, LIVER, S-9, AROCLOR 1254 (10%), Method: PREINCUBATION inactive; negative | [2] inactive; negative | Test System: AMES SALMONELLA TYPHIMURIUM, Strain/Indicator: TA1537, Metabolic Activation: RAT, LIVER, S-9, AROCLOR 1254 (10%), Method: PREINCUBATION inactive; negative

O=C/C=C/c1ccccc1
active: Test System: MOUSE LYMPHOMA, Strain/Indicator: L5178Y (TK+/TK-), Metabolic Activation: NONE, Method: SUSPENSION/PLATE active; positive. reevaluation of results: positive | Test System: MOUSE LYMPHOMA, Strain/Indicator: L5178Y (TK+/TK-), Metabolic Activation: RAT, LIVER, S-9, AROCLOR 1254, Method: SUSPENSION/PLATE active; positive. reevaluation of results: positive
inactive: End Point: IN VITRO CHROMOSOMAL ABERRATIONS, Test System: CHINESE HAMSTER OVARY CELLS, Metabolic Activation: NONE inactive; negative | End Point: IN VITRO CHROMOSOMAL ABERRATIONS, Test System: CHINESE HAMSTER OVARY CELLS, Metabolic Activation: RAT, LIVER, S-9, AROCLOR 1254 inactive; negative | End Point: IN VIVO MICRONUCLEUS, Test System: BONE MARROW POLYCHROMATIC ERYTHROCYTES, Species: MOUSE, Strain/Sex: DDY/MALE, Route: IP inactive; negative | Test System: AMES SALMONELLA TYPHIMURIUM, Strain/Indicator: TA97, Metabolic Activation: NONE, Method: PREINCUBATION (120 MIN) inactive; negative | Test System: AMES SALMONELLA TYPHIMURIUM, Strain/Indicator: TA97, Metabolic Activation: S-9, Method: PREINCUBATION (120 MIN) inactive; negative | Test System: AMES SALMONELLA TYPHIMURIUM, Strain/Indicator: TA98, Metabolic Activation: HAMSTER, LIVER, S-9, AROCLOR 1254 (2.5-20%), Method: PREINCUBATION inactive; negative | Test System: AMES SALMONELLA TYPHIMURIUM, Strain/Indicator: TA98, Metabolic Activation: HAMSTER, LIVER, S-9, AROCLOR 1254, Method: STANDARD PLATE inactive; negative | Test System: AMES SALMONELLA TYPHIMURIUM, Strain/Indicator: TA98, Metabolic Activation: NONE, Method: PREINCUBATION (120 MIN) inactive; negative | Test System: AMES SALMONELLA TYPHIMURIUM, Strain/Indicator: TA98, Metabolic Activation: NONE, Method: STANDARD PLATE inactive; negative | Test System: AMES SALMONELLA TYPHIMURIUM, Strain/Indicator: TA98, Metabolic Activation: RAT, LIVER, S-9, AROCLOR 1254, Method: STANDARD PLATE inactive; negative | Test System: AMES SALMONELLA TYPHIMURIUM, Strain/Indicator: TA98, Metabolic Activation: S-9, Method: PREINCUBATION (120 MIN) inactive; negative | Test System: AMES SALMONELLA TYPHIMURIUM, Strain/Indicator: TA100, Metabolic Activation: HAMSTER, LIVER, S-9, AROCLOR 1254 (2.5-20%), Method: PREINCUBATION inactive; negative | Test System: AMES SALMONELLA TYPHIMURIUM, Strain/Indicator: TA100, Metabolic Activation: HAMSTER, LIVER, S-9, AROCLOR 1254, Method: STANDARD PLATE inactive; negative | [1] inactive; negative | Test System: AMES SALMONELLA TYPHIMURIUM, Strain/Indicator: TA100, Metabolic Activation: NONE, Method: PREINCUBATION (120 MIN) inactive; negative | Test System: AMES SALMONELLA TYPHIMURIUM, Strain/Indicator: TA100, Metabolic Activation: NONE, Method: STANDARD PLATE inactive; negative | Test System: AMES SALMONELLA TYPHIMURIUM, Strain/Indicator: TA100, Metabolic Activation: RAT LIVER S-9, AROCLOR 1254, Method: PREINCUBATION inactive; negative | Test System: AMES SALMONELLA TYPHIMURIUM, Strain/Indicator: TA100, Metabolic Activation: RAT, LIVER, S-9, AROCLOR 1254, Method: PREINCUBATION inactive; negative | Test System: AMES SALMONELLA TYPHIMURIUM, Strain/Indicator: TA100, Metabolic Activation: RAT, LIVER, S-9, AROCLOR 1254, Method: STANDARD PLATE inactive; negative | Test System: AMES SALMONELLA TYPHIMURIUM, Strain/Indicator: TA100, Metabolic Activation: S-9, Method: PREINCUBATION (120 MIN) inactive; negative | Test System: AMES SALMONELLA TYPHIMURIUM, Strain/Indicator: TA102, Metabolic Activation: HAMSTER, LIVER, S-9, AROCLOR 1254, Method: PREINCUBATION inactive; negative | Test System: AMES SALMONELLA TYPHIMURIUM, Strain/Indicator: TA102, Metabolic Activation: MOUSE LIVER S-9, AROCLOR 1254, Method: PREINCUBATION inactive; negative | Test System: AMES SALMONELLA TYPHIMURIUM, Strain/Indicator: TA102, Metabolic Activation: NONE, Method: PREINCUBATION inactive; negative | Test System: AMES SALMONELLA TYPHIMURIUM, Strain/Indicator: TA102, Metabolic Activation: RAT LIVER S-9, AROCLOR 1254, Method: PREINCUBATION inactive; negative | Test System: AMES SALMONELLA TYPHIMURIUM, Strain/Indicator: TA102, Metabolic Activation: RAT, LIVER, S-9, AROCLOR 1254, Method: PREINCUBATION inactive; negative | Test System: AMES SALMONELLA TYPHIMURIUM, Strain/Indicator: TA104, Metabolic Activation: MOUSE LIVER S-9, AROCLOR 1254, Method: PREINCUBATION inactive; negative | Test System: AMES SALMONELLA TYPHIMURIUM, Strain/Indicator: TA104, Metabolic Activation: NONE, Method: PREINCUBATION inactive; negative | Test System: AMES SALMONELLA TYPHIMURIUM, Strain/Indicator: TA104, Metabolic Activation: RAT LIVER S-9, AROCLOR 1254, Method: PREINCUBATION inactive; negative | Test System: AMES SALMONELLA TYPHIMURIUM, Strain/Indicator: TA1535, Metabolic Activation: HAMSTER, LIVER, S-9, AROCLOR 1254, Method: STANDARD PLATE inactive; negative | Test System: AMES SALMONELLA TYPHIMURIUM, Strain/Indicator: TA1535, Metabolic Activation: NONE, Method: STANDARD PLATE inactive; negative | Test System: AMES SALMONELLA TYPHIMURIUM, Strain/Indicator: TA1535, Metabolic Activation: RAT, LIVER, S-9, AROCLOR 1254, Method: STANDARD PLATE inactive; negative | Test System: AMES SALMONELLA TYPHIMURIUM, Strain/Indicator: TA1537, Metabolic Activation: HAMSTER, LIVER, S-9, AROCLOR 1254, Method: STANDARD PLATE inactive; negative | [2] inactive; negative | Test System: AMES SALMONELLA TYPHIMURIUM, Strain/Indicator: TA1537, Metabolic Activation: NONE, Method: STANDARD PLATE inactive; negative | Test System: AMES SALMONELLA TYPHIMURIUM, Strain/Indicator: TA1537, Metabolic Activation: RAT, LIVER, S-9, AROCLOR 1254, Method: STANDARD PLATE inactive; negative | Test System: AMES SALMONELLA TYPHIMURIUM, Strain/Indicator: TA1538, Metabolic Activation: HAMSTER, LIVER, S-9, AROCLOR 1254, Method: STANDARD PLATE inactive; negative | Test System: AMES SALMONELLA TYPHIMURIUM, Strain/Indicator: TA1538, Metabolic Activation: NONE, Method: STANDARD PLATE inactive; negative | Test System: AMES SALMONELLA TYPHIMURIUM, Strain/Indicator: TA1538, Metabolic Activation: RAT, LIVER, S-9, AROCLOR 1254, Method: STANDARD PLATE inactive; negative
